What was measured:
[1] = test system: estrogen receptor positive cell line MCF-7; assay: Proliferation assay (WST-1), MCF-7; format: cell-based; settings: in vitro; FIG. 7
Protocol: (§1) A colorimetric based proliferation assay using WST-1 (Roche, 11644807001) proliferation reagent was carried out using HREC cells, HUVEC cells, and the breast cancer cells MDA-MB-231, MCF-7, and SUM149. 2000 cells/well were plated in 96-well plates and allowed to adhere overnight. On the following day, the media was exchanged with fully supplemented media containing peptides or equivalent DMSO vehicle for the controls. Three days later, the media containing the peptides was replaced with serum-free EBM-2 media containing WST-1 reagent and the plates were incubated for four hours as per the manufacturer's recommendations. Changes in color, due to the formazan dye resulted from the cleavage of the tetrazolium salt WST-1 by the mitochondrial succinate-tetrazolium reductase, were read on a Victor V fluorescence plate reader (Perkin Elmer, Mass.) by measuring the absorbance at 450 nm. Dose response curves of percent live cells (in comparison to untreated cells, but incubated in complete media with 0.2% DMSO) were created. Assays were performed in at least two independent replicates and each replicate was performed using three experimental triplicates.

[2] = test system: insulin growth factor 1 (IGF1) signaling; assay: IGF1 signaling in vitro in MEC; format: cell-based; settings: FIG. 6
[3] = test system: microvascular endothelial cell (MEC); assay: MEC tube formation assay; format: cell-based; settings: 25 μM peptide; FIG. 3 C-D
[4] = test system: human retinal endothelial cells (HREC); assay: Adhesion assay (RT-CIM), HREC; format: cell-based; settings: FIG. 2
Protocol: (§2) Similar to the migration assays, the inhibition activity of the peptide in cellular adhesion was assessed using the RT-CIM technology. In this case, 25,000 cells/well were plated in 16 wells E-plates (Roche, Basel Switzerland) in the presence or absence of the peptide. The adhesion was monitored over time (3 hours) by measuring changes in the electrical impedance, which is a direct measure of the cells adhering on the electrodes. Assays were performed in at least two independent replicates and each replicate was performed using two experimental duplicates.

[5] = test system: neovasculature in laser induced CNV; assay: CNV regression model; format: in vivo, mice; settings: mouse eye; free peptide; FIG. 14
Protocol: Bruch's membranes of both eyes of C57BL/6J mice were ruptured with a laser after anesthetizing the mice and dilating their pupils with 1% tropicamide. Seven days later, some mice were sacrificed to establish baseline neovascularization. At that time, 1 μg of SP2043 (SEQ ID NO: 1) was administered in one eye and vehicle in the fellow eye of other mice. Seven days later, all animals were perfused with fluorescein-labeled dextran, eyes removed, the retina dissected and flatmounted after making radial cuts, and fluorescence was measured. The images were digitized using a 3-color charge-coupled device video camera and a frame grabber and the area of hypervascularization was quantified by image-analysis software.

[6] = test system: human umbilical vein endothelial cells (HUVEC); assay: Adhesion assay (RT-CIM), HUVEC; format: cell-based; settings: FIG. 1
Protocol: as §2

[7] = test system: lymphatic endothelial cell (LEC); assay: LEC adhesion assay; format: cell-based; settings: FIG. 4
Protocol: as §2

neovascularization = assay: Neovascularization in a rabbit model; format: in vivo; settings: day 34 following intravitreal injection into rabbit eyes; FIG. 26
[8] = test system: triple-negative breast cancer cell line SUM149; assay: Proliferation assay (WST-1), SUM149; format: cell-based; settings: in vitro; FIG. 7
Protocol: as §1

[9] = test system: lymphatic endothelial cell (LEC); assay: LEC tube formation assay; format: cell-based; settings: FIG. 5
[10] = test system: insulin growth factor 1 (IGF1) signaling; assay: IGF1 signaling in vitro in LEC; format: cell-based; settings: FIG. 6
[11] = test system: MDA-MB-231 orthotopic tumors; assay: MDA-MB-231 orthotopic tumor xenografts in SCID mice; format: in vivo; settings: 33 days, 20 mg of SP2043/kg, intraperitoneal injection, FIG. 9
Protocol: Orthotopic breast tumors were initiated in SCID mice using human triple-negative breast cancer cells MDA-MB-231. 2×10^6 cells per 100 μL aliquot of single cell suspension were injected in the breast mammary fat pad. Tumors reached volumes of 75-100 mm^3 in approximately 14-21 days. Mice were randomized and arranged in groups (8 mice per group) with similar tumor volumes (no statistical difference among averages) and treatment was commenced. […] Tumors were measured every fourth day using calipers and the tumor volume was calculated using the formula V=ab^2/2, where “a” is the larger and “b” is the smaller diameter.

[12] = Accumulation in tumor and organs after systemic intravenous injection; format: in vivo; settings: systemically intravenously injected; FIG. 31
[13] = test system: hepatocyte growth factor (HGF) signaling; assay: HGF signaling in vitro in MEC; format: cell-based; settings: FIG. 6
angiogenesis = assay: Angiogenesis in vivo (lectin staining, IHC)
[14] = test system: human umbilical vein endothelial cells (HUVEC); assay: Migration assay (RT-CIM), HUVEC; format: cell-based; settings: FIG. 1
Protocol: The inhibitory potential of the peptides was measured using a real time migration assay system based on electrical impedance (RT-CIM, ACEA Biosciences, CA). CIM 16 well plates (Roche, 05665817001) are composed of a top and bottom chamber separated by a microporous (8 μm) polycarbonate membrane. The membrane was coated with fibronectin (20 μg/mL), and 45,000 cells/well in serum free media with or without peptides were added to the top compartment. Media with chemoattractant (i.e., fully supplemented EBM-2) was added to the bottom compartment of the chamber and the plate was incubated at 37° C. for 20 hours. The sensors integrated on the bottom side of the membrane monitor and continuously record changes in impedance as the cells move through the membrane. The RT-CIM technology allows for easy quantification of cell migration by monitoring the cell index derived from the measured impedances. Assays were performed in at least two independent replicates and each replicate was performed using two experimental duplicates. Breast cancer cells MDA-MB-231 are not suitable for the RT-CIM type experiments due to their thin elongated phenotype, thus the inhibition of migration was investigated using a wound healing type assay. This assay was performed using the Oris Pro Migration assay (Platypus Technologies, CMA 1.101). […]

[15] = test system: human retinal endothelial cells (HREC); assay: Proliferation assay (WST-1), HREC; format: cell-based; settings: FIG. 2
Protocol: as §1

LRRFSTAPFAFIDINDVINF (Artificial sequence based on human Collagen Type IV protein) [SP2043]
proliferation of MCF-7 [1]: inhibit | IGF1 signaling in MEC [2]: inhibit | MEC tube formation [3]: inhibit | adhesion of HREC [4]: inhibit | regression of the neovasculature in laser induced CNV model [5]: caused regression | adhesion of HUVEC [6]: inhibit | lymphatic endothelial cell adhesion [7]: inhibit | neovascularization in a rabbit model (neovascularization): Inhibition | proliferation of SUM149 [8]: inhibit | LEC tube formation [9]: inhibit | IGF1 signaling in LEC [10]: inhibit | inhibition of tumor growth [11]: about 82% | accumulation in tumor and other organs [12]: accumulated in tumor as well as other organs | HGF signaling in MEC [13]: inhibit | angiogenesis in vivo (angiogenesis; FIG. 10): inhibit | angiogenesis as seen by lectin staining for IHC (angiogenesis; FIG. 11): inhibited | migration of HUVEC [14]: inhibit | proliferation of HREC [15]: inhibit
